Here are results for one sequence from publication PMC3341351, “Down-Regulation of GABAA Receptor via Promiscuity with the Vasoactive Peptide Urotensin II Receptor. Potential Involvement in Astrocyte Plasticity” (PLoS ONE, 2012).

This assay deals with γ2^HA GABAAR subunit. In words: Cell surface ELISA of γ2^HA GABAAR subunit in CHO-UT^c-myc-α2β3γ2^HA. The class given is cell-based. The note with it: hUII 10^−8 M, 30 min, 37°C, 5 to 7 independent experiments in triplicates. The procedure:
Cells were plated at 50 000 cells/well in 96-well plates coated with 0.1 mg/ml poly-L-ornithine (Sigma-Aldrich). […] Cells were fixed with 4% PFA in PBS for 5 min at RT, washed in PBS, and then permeabilized in 0.05% triton X100 (only for permeabilized cells) and non specific binding were blocked with PBS containing 1% FBS for 30 min at RT. The first rat anti-HA monoclonal antibody (0.5 µg/ml, 3F10 clone, Roche, Meylan, France or 1 µg/ml, Santa-Cruz), mouse anti-c-myc monoclonal antibody (1.33 µg/ml, 9E10 clone, Roche), rabbit anti-UT antibody (1 µg/ml, Tebu, Santa-Cruz) or rabbit anti-β3 antibody (1∶200, Abcam, Paris, France), were added for 1 h30 at RT. Incubation with goat anti-rat (Thermo scientific, Fisher, Brebières, France), goat anti-mouse (Santa Cruz) or goat anti-rabbit (Tebu, Santa Cruz) conjugated alkaline phosphatase diluted at 1∶1000 in PBS/FBS was carried out for 30 min at RT. The cells were washed four times with PBS, a colorimetric alkaline phosphatase substrate was added (SuperSignal ELISA, Thermo scientific, Fisher) and the resulting color reaction was measured using a Viktor multilabel plate reader (PerkinElmer, Courtaboeuf, France). Background absorbance from samples transfected with non-tagged receptors or from cells without first antibodies were systematically measured. […] All experiments were done at least three times in triplicates.
In general terms: ELISA stands for enzyme-linked immunosorbent assay.

With “ETPDCFWKYCV (disulfide) [hUII, human urotensin II, synthesized by solid phase methodology]”, the “Loss of γ2^HA subunit from the cell surface” value is given as “approximately 40%”.
